Measured values from patent US20260159536A1, “AKR1C3-ACTIVATED DNA ALKYLATING AGENT, AND MEDICAL APPLICATION THEREOF” (ASCENTAWITS PHARMACEUTICALS, LTD., priority 2021, published 2026).

Tests used:
[1] = system: HuPrime model LI6643 human liver cancer; test: In vivo pharmacodynamics, liver cancer LI6643 PDX model (Compound A, Sorafenib; section 4.8); design: species or system BALB/c nude mice; conditions: for Tumor volume: 10 mg/kg i.v.
Procedure: Experiment Instruction: BALB/c nude mice were subcutaneously inoculated with HuPrime® model LI6643 tumor blocks to establish a subcutaneous transplantation tumor model of human liver cancer. […] The efficacy was evaluated according to the relative tumor inhibition rate TGI (%), and the safety was evaluated according to the change in body weight and the death of the animals.

[2] = system: HuPrime model LI1005 human liver cancer; test: In vivo pharmacodynamics, liver cancer LI1005 PDX model; design: species or system BALB/c nude mice; conditions: for Tumor volume (x ± S): in mm³ (unit assumed)
[3] = 10 mg/kg, QWx2, 1 week off, QWx2, i.v., Day 35
[4] = 1.25 mg/kg, QDx5, 2 days off, 2 weeks off, QDx5, i.p., Day 35
[5] = 2.5 mg/kg, QDx5, 2 days off, 2 weeks off, QDx5, i.p., Day 35
[6] = 5 mg/kg, QDx5, 2 days off, 2 weeks off, QDx5, i.p., Day 35

## O=[N+]([O-])c1ccc(C(OP(=O)(N2CC2)N2CC2)C(F)(F)F)cc1Oc1ccc(-c2ccc(F)cc2)c(F)c1 (racemic) [Compound A]
[1]; Day 32
  Tumor volume: 7.11 mm^3
[1]; Day 35
  Tumor volume: 0.00 mm^3
[1]; Day 39
  Tumor volume: 0.00 mm^3
[1]; Day 42
  Tumor volume: 0.00 mm^3
[1]; Day 46
  Tumor volume: 0.00 mm^3
[1]; Day 49
  Tumor volume: 0.00 mm^3
[1]; Day 53
  Tumor volume: 0.00 mm^3
[1]; [3]
  Relative tumor volume (x ± S): 0 ± 0
  T/C (%): 0.00%
  TGI (%): 100.00%
  Tumor volume (x ± S): 0 ± 0
[1]; 1.25, 2.5, 5, 10 mg/kg
  toxic side effects (body weight change): without toxic side effects
[2]; 1.25 mg/kg i.p., Day 0
  Tumor volume: 102.66 mm^3
[2]; 1.25 mg/kg i.p., Day 3
  Tumor volume: 157.94 mm^3
[2]; 1.25 mg/kg i.p., Day 7
  Tumor volume: 198.68 mm^3
[2]; 1.25 mg/kg i.p., Day 10
  Tumor volume: 188.83 mm^3
[2]; 1.25 mg/kg i.p., Day 14
  Tumor volume: 196.25 mm^3
[2]; 1.25 mg/kg i.p., Day 17
  Tumor volume: 204.85 mm^3
[2]; 1.25 mg/kg i.p., Day 21
  Tumor volume: 228.87 mm^3
[2]; 1.25 mg/kg i.p., Day 24
  Tumor volume: 256.49 mm^3
[2]; 1.25 mg/kg i.p., Day 28
  Tumor volume: 246.26 mm^3
[2]; 1.25 mg/kg i.p., Day 31
  Tumor volume: 282.93 mm^3
[2]; 1.25 mg/kg i.p., Day 35
  Tumor volume: 334.61 mm^3
[2]; [4]
  Relative tumor volume (x ± S): 3.28 ± 0.53
  T/C (%): 32.47%
  TGI (%): 67.53%
  Tumor volume (x ± S): 334.61 ± 61.24
[2]; 2.5 mg/kg i.p., Day 0
  Tumor volume: 103.02 mm^3
[2]; 2.5 mg/kg i.p., Day 3
  Tumor volume: 156.63 mm^3
[2]; 2.5 mg/kg i.p., Day 7
  Tumor volume: 197.27 mm^3
[2]; 2.5 mg/kg i.p., Day 10
  Tumor volume: 156.39 mm^3
[2]; 2.5 mg/kg i.p., Day 14
  Tumor volume: 147.34 mm^3
[2]; 2.5 mg/kg i.p., Day 17
  Tumor volume: 148.94 mm^3
[2]; 2.5 mg/kg i.p., Day 21
  Tumor volume: 173.92 mm^3
[2]; 2.5 mg/kg i.p., Day 24
  Tumor volume: 180.83 mm^3
[2]; 2.5 mg/kg i.p., Day 28
  Tumor volume: 178.96 mm^3
[2]; 2.5 mg/kg i.p., Day 31
  Tumor volume: 182.98 mm^3
[2]; 2.5 mg/kg i.p., Day 35
  Tumor volume: 178.69 mm^3
[2]; [5]
  Relative tumor volume (x ± S): 1.60 ± 0.42
  T/C (%): 15.88%
  TGI (%): 84.12%
  Tumor volume (x ± S): 178.69 ± 65.98
[2]; 5 mg/kg i.p., Day 0
  Tumor volume: 103.15 mm^3
[2]; 5 mg/kg i.p., Day 3
  Tumor volume: 160.80 mm^3
[2]; 5 mg/kg i.p., Day 7
  Tumor volume: 167.82 mm^3
[2]; 5 mg/kg i.p., Day 10
  Tumor volume: 120.93 mm^3
[2]; 5 mg/kg i.p., Day 14
  Tumor volume: 97.35 mm^3
[2]; 5 mg/kg i.p., Day 17
  Tumor volume: 90.25 mm^3
[2]; 5 mg/kg i.p., Day 21
  Tumor volume: 106.81 mm^3
[2]; 5 mg/kg i.p., Day 24
  Tumor volume: 115.29 mm^3
[2]; 5 mg/kg i.p., Day 28
  Tumor volume: 110.01 mm^3
[2]; 5 mg/kg i.p., Day 31
  Tumor volume: 102.22 mm^3
[2]; 5 mg/kg i.p., Day 35
  Tumor volume: 85.00 mm^3
[2]; [6]
  Relative tumor volume (x ± S): 0.77 ± 0.18
  T/C (%): 7.62%
  TGI (%): 92.38%
  Tumor volume (x ± S): 85.00 ± 26.32
[2]; 10 mg/kg i.v., Day 0
  Tumor volume: 102.58 mm^3
[2]; 10 mg/kg i.v., Day 3
  Tumor volume: 127.72 mm^3
[2]; 10 mg/kg i.v., Day 7
  Tumor volume: 172.58 mm^3
[2]; 10 mg/kg i.v., Day 10
  Tumor volume: 138.61 mm^3
[2]; 10 mg/kg i.v., Day 14
  Tumor volume: 127.60 mm^3
[2]; 10 mg/kg i.v., Day 17
  Tumor volume: 132.95 mm^3
[2]; 10 mg/kg i.v., Day 21
  Tumor volume: 151.00 mm^3
[2]; 10 mg/kg i.v., Day 24
  Tumor volume: 181.36 mm^3
[2]; 10 mg/kg i.v., Day 28
  Tumor volume: 191.25 mm^3
[2]; 10 mg/kg i.v., Day 31
  Tumor volume: 186.25 mm^3
[2]; 10 mg/kg i.v., Day 35
  Tumor volume: 179.97 mm^3
[2]; [3]
  Relative tumor volume (x ± S): 1.87 ± 0.54
  T/C (%): 18.53%
  TGI (%): 81.47%
  Tumor volume (x ± S): 179.97 ± 51.38
[2]; Compound A 10, 1.25, 2.5, 5 mg/kg, Sorafenib 30 mg/kg
  tolerability / body weight: well tolerated
